Consider one compound from patent US7504371B2, “Organic catalyst with enhanced enzyme compatibility” (The Procter & Gamble Company, priority 2005, dated 2009).

What all share (type): biochemical
For one experiment, the target named is T1, Termamyl (Bacillus licheniformis, UniProt P06278).
T1 construct: purchased Novozymes, Denmark
Kind of experiment: Organic Catalyst/Enzyme Compatibility Test (alpha amylase activity assay), Termamyl. Conditions: (Ac/Ab)×100; [Peracetic Acid]=5.0 ppm; [organic catalyst]=0.5 ppm; 40° C.; detergent solution. The method, then:
(§1) Organic Catalyst/Enzyme Compatibility Test
(§2) The test described below uses an alpha amylase activity assay to measure the impact of organic catalysts on the enzyme.
(§3) Equipment. UV/V is spectrophotometer capable of measuring @ 415 nm, heated magnetic stirrer capable of 40° C., 5 mL Luer lock syringe and filters (Acrodisc 0.45 μm), pH meter, and balance (4-place analytical).
(§4) Reagents. […]
(§5) • a.) TRIS Assay Buffer. […] Mix 6 μL of filtered sample with 250 μL of amylase reagent in a cuvette and place the cuvette in a UV/VIS spectrophotometer and monitor change in absorbance at 415 nm. Determine length of time (tE) to the nearest second required to obtain an absorbance reading of 1.0 for each enzyme. […] Once sample and reagent are mixed, record the absorbance at tE for the respective enzyme. Designate such absorbance Ab. • c.) Analysis of sample with enzyme, peracetic acid, and organic catalyst. […] Once sample and reagent are mixed, record the absorbance at tE for the respective enzyme. Designate such absorbance Ac. […] The ECV for any specific enzyme is (Ac/Ab)×100 where Ab and Ac are the values determined in Steps 2.)b.) and 2.)c.), respectively, for that enzyme. • b.) The ECV for a given organic catalyst is the average of the individual ECV values for the three enzymes. […]

The subject of the next experiment is Duramyl. Briefly: Organic Catalyst/Enzyme Compatibility Test (alpha amylase activity assay), Duramyl. Conditions: (Ac/Ab)×100; [Peracetic Acid]=5.0 ppm; [organic catalyst]=0.5 ppm; 40° C.; detergent solution. How it is done: as §1, §2, §3, §4, §5
Another experiment relates to Natalase. Kind of experiment: Organic Catalyst/Enzyme Compatibility Test (alpha amylase activity assay), Natalase. To be noted: (Ac/Ab)×100; [Peracetic Acid]=5.0 ppm; [organic catalyst]=0.5 ppm; 40° C.; detergent solution. How it is done: as §1, §2, §3, §4, §5
The subject of experiment [1] is Termamyl, Natalase, and Duramyl. Kind of experiment: Organic Catalyst/Enzyme Compatibility Test, average of the three amylases. Conditions: ECV=(ECVter+ECVdur+ECVnat)/3; [Peracetic Acid]=5.0 ppm; [organic catalyst]=0.5 ppm. The method, then:
as §1, §2, §3, §4, §5

Counter-ions that a name gives are not always drawn.

T1 sequence (P06278 30-512): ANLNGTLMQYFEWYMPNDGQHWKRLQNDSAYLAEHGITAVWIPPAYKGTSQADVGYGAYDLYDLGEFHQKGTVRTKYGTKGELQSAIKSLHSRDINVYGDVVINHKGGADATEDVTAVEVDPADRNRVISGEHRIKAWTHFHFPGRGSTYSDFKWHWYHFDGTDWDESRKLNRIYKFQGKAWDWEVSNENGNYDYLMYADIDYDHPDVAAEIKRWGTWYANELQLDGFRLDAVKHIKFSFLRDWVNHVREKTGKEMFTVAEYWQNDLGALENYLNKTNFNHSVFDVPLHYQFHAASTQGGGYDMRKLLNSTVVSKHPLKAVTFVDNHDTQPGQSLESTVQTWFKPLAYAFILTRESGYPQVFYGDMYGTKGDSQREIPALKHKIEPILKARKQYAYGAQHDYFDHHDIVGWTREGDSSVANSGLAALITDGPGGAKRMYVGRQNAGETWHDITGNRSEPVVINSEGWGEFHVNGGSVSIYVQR

As to `CC(C)(C)OCC(C[N+]1=Cc2ccccc2CC1)OS(=O)(=O)[O-]` (stereo not shown) [Entry 1, Sulfuric acid mono-[2-(3,4-dihydro-isoquinolin-2-yl)-1-((1,1-dimethylethoxy)methyl)ethyl] ester, internal salt], at Termamyl, the “Enzyme Compatibility Values ECVter” value was determined as 51. For the same compound, the “Enzyme Compatibility Values ECVdur” value in the experiment with Duramyl is reported as 86. The “Enzyme Compatibility Values ECVnat” value in the experiment with Natalase was determined as 58. In addition, the “Enzyme Compatibility Values ECV” value in experiment [1] stood at 65.
